Experimental data: PMC10060354, “Discovery of a small molecule ligand of FRS2 that inhibits invasion and tumor growth” (Cellular Oncology, 2022)
Converted amounts (≈) assume the structure as drawn. Like-named read-outs stand apart in the source and are kept apart here.

Experiments:
[1] = CaCo-2 permeability (bi-directional); details: human
Experimental: Caco-2 cells obtained from the ATCC were used between passage numbers 40—60. Cells were seeded onto Millipore Multiscreen Transwell plates at 1 × 10^5 cells/cm^2. The cells were cultured in DMEM and media was changed every two or three days. On day 20, the permeability study was performed. […] Cells were then incubated with HBSS at the desired pH in both apical and basolateral compartments for 40 min to stabilize physiological parameters.
The fluorescent integrity marker lucifer yellow was also included in the dosing solution. Analytical standards were prepared from test compound DMSO dilutions and transferred to buffer, maintaining a 1% v/v DMSO concentration.
For assessment of A-B permeability, HBSS was removed from the apical compartment and replaced with test compound dosing solution. The apical compartment insert was then placed into a companion plate containing fresh buffer (containing 1% v/v DMSO). For assessment of B-A permeability, HBSS was removed from the companion plate and replaced with test compound dosing solution. Fresh buffer (containing 1% v/v DMSO) was added to the apical compartment insert, which was then placed into the companion plate.
Compound permeability was assessed in duplicate. Compounds of known permeability characteristics were run as controls on each assay plate.
Test and control compounds were quantified by LC–MS/MS cassette analysis using a 7-point calibration with appropriate dilution of the samples. The starting concentration (C0) was determined from the dosing solution and the experimental recovery calculated from C0 and both apical and basolateral compartment concentrations. The integrity of the monolayer throughout the experiment was checked by monitoring lucifer yellow permeation using fluorimetric analysis.
The permeability coefficient (Papp) for each compound was calculated from the following equation: Papp=dQ/dtC0×A where dQ/dt was the rate of permeation of the drug across the cells, C0 was the donor compartment concentration at time zero and A was the area of the cell monolayer. C0 was obtained from analysis of the dosing solution.
Efflux ratio (ER) was calculated from mean A-B and B-A data. This was derived from: ER=Papp(B-A)Papp(A-B)

[2] = test system: HepG2 human hepatocellular carcinoma cells; assay: Cell viability (cytotoxicity, MTT) using HepG2; assay type: cell-based; details: for MEC: 72h, 3 replicas, NR = No response (Summary sheet); for MTT (MEC) Minimum effective concentration / MTT (AC50) Conc at which 50% of maximum efficacy is reached: 72 h, summary sheet
Experimental: HepG2 human hepatocellular carcinoma cells were plated on 96-well tissue culture polystyrene plates for 24 h prior to dosing of the cells. The shortlisted hits were diluted in DMSO and serial dilutions are made 1% DMSO in growth media. Compounds at 8 concentrations in triplicate was then incubated for 72 h. Appropriate blanks and controls were run alongside the assay. One h prior to the end of the incubation period, the cells were loaded with MTT [yellow; 3-(4,5-dimethyl-2-thiazolyl)-2,5-diphenyl-2H-tetrazolium bromide], the plates were dried and re-solubilized using DMSO. The plates were then scanned at 570 nm using a plate reader.
The minimum effective concentration was determined from the lowest concentration whose mean value exceeds the significance level, provided either a clear dose–response relationship was observed, or at least two consecutive concentration points were above the significance level.

[3] = Semi-thermodynamic solubility; assay type: physicochemical; details: for solubility / solubility thermodynamic: PBS, aqueous buffer, thermodynamic from solid; for solubility: Room Temp, Overnight, LC-MSMS; for solubility thermodynamic: overnight; for solubility thermodynamic / Solubility (class in words): summary sheet
Experimental: In vitro ADME-T assays were performed by Cyprotex (Cyprotex Discovery, Cheshire, UK). […] The solution was agitated at ambient temperature overnight. The solutions were then centrifuged for 30 min at 3000 rpm at RT. The supernatant was removed and centrifuged for a further 30 min under the same conditions. An aliquot of the resulting supernatant was diluted in 50% methanol in water (containing an internal standard for MS analysis) prior to analysis by LC–MS/MS. […] These stocks were diluted in 50% methanol in water (containing an internal standard for MS analysis) prior to analysis by LC–MS/MS. The solubility of the shortlisted hits was calculated from a linear or quadratic fit of the standard curve.

[4] = Microsomal metabolic stability; assay type: in vitro ADME; details: human, pooled liver microsomes; for half-life at 1 µM: pH 7.4, liver microsomes; for microsomal CLint at 1 µM: pH 7.4, read-out: Metabolic stability - Intrinsic clearance (CI)
Experimental: Pooled liver microsomes were purchased from Xenotech (H0500) and were stored according to manufacturer’s instructions prior to use. […] A minus co-factor control incubation was included for each compound tested where 0.1 M phosphate buffer pH 7.4 was added instead of NADPH. Two control compounds were included with each species. All incubations were performed singularly for each shortlisted hit. Each compound was incubated for 0, 5, 15, 30 and 45 min. The minus co-factor was incubated for 45 min only. The reactions were stopped by transferring incubate into acetonitrile at the appropriate time points in a 1:3 ratio. The termination plates were centrifuged at 3000 rpm for 20 min at 4 °C to precipitate the protein. Following protein precipitation, the supernatant were combined in cassette of up to 4 compounds, internal standard for MS analysis was added and samples were analyzed using LC–MS/MS. From a plot of In peak area ratio (compound peak area/internal standard peak area) against time, the gradient of the lines were determined. Subsequently, half-life and intrinsic clearance were calculated using the following equations. Eliminationrateconstant(k)=(-gradient)Half-life(t1/2)(min)=0.693/kIntrinsicclearance(CLint)(μl/min/mgprotein)=Vx0.693/t1/2 where V = Incubation volume (µl) / Microsomal protein (mg)

[5] = test system: bFGF-sensitive (M059K, RT-112, SW780) and bFGF-insensitive (SKOV3, AGS and HCT116) cell lines; assay: SIA, collagen I invasion in panel of human cancer cell models; assay type: cell-based; details: 10 µM
Experimental: 1000—2500 cells/well in 100 μl were seeded in 96 well Corning® Spheroid microplate (CLS4520, Sigma-Aldrich) or in cell-repellent 96 well microplate (650,790, Greiner Bio-one). SIA and analysis was performed as described before. In brief: After spheroid formation (24 – 72 h after seeding), 70 µl medium was removed and replaced with the collagen mixture (2.5 mg/ml Pure Col Collagen I (Advanced Biomatrix)), DMEM 1x (from 10 × stock, Sigma, D2429) and 0.4% Sodium bicarbonate (Sigma, S8761)), resulting in a final collagen concentration of 1.75 mg/ml. Embedded spheroids were stimulated with bFGF (100 ng/ml if not otherwise stated), HGF (30 ng /ml) or EGF (20 ng/ml) and distance of invaded cells quantified 24 – 48 h after embedding. Compounds and BGJ398 were added in Dimethylsulfoxid (DMSO) and corresponding DMSO concentrations were used in control samples.

[6] = test system: DAOY cells; assay: Spheroid invasion assay (SIA), bFGF-induced collagen I invasion; assay type: cell-based, human; details: for functional activity in SIA (result in words): DAOY, bFGF-induced, 1, 5 and 10 µM; for EC50: DAOY cells, n = 3 technical replicas, read-out: EC50 for the inhibition of bFGF-induced collagen I invasion
In short: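 Spheroids formed over 24–72 h were embedded in collagen I (final 1.75 mg/ml) and stimulated with bFGF (100 ng/ml unless stated), HGF 30 ng/ml or EGF 20 ng/ml with compound in DMSO. Invasion distance was quantified 24–48 h after embedding.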

[7] = Caco-2, Mean Papp B-A, Caco-2, summary sheet
[8] = Caco-2, pH 7.4, Mean % Recovery A2B, HBSS/HBSS, pH 7.4/7.4
[9] = Caco-2, pH 7.4, Mean % Recovery B2A, HBSS/HBSS, pH 7.4/7.4
[10] = Caco-2, pH 7.4, Mean Papp B2A, HBSS/HBSS, pH 7.4/7.4
[11] = Caco-2, pH 7.4, Papp B2A Replicate 1, HBSS/HBSS, pH 7.4/7.4
[12] = Caco-2, pH 7.4, Papp B2A Replicate 2, HBSS/HBSS, pH 7.4/7.4
[13] = read-out: Solubility Replicate 1
[14] = read-out: Solubility Replicate 2
[15] = read-out: Solubility Replicate 3
[16] = read-out: Solubility Replicate 4
[17] = Caco-2, Mean Papp A-B, Caco-2, summary sheet
[18] = Caco-2, pH 7.4, Mean Papp A2B, HBSS/HBSS, pH 7.4/7.4
[19] = Caco-2, pH 7.4, Papp A2B Replicate 1, HBSS/HBSS, pH 7.4/7.4
[20] = Caco-2, pH 7.4, Papp A2B Replicate 2, HBSS/HBSS, pH 7.4/7.4

Row | Papp B→A at 120 min, 10 μM [1, 7] [×10⁻⁶ cm/s] | recovery at 120 min, 10 µM [1, 8] [%] | recovery at 120 min, 10 µM [1, 9] [%] | Papp B→A at 120 min, 10 μM [1, 10] [×10⁻⁶ cm/s] | Papp B→A at 120 min, 10 μM [1, 11] [×10⁻⁶ cm/s] | Papp B→A at 120 min, 10 μM [1, 12] [×10⁻⁶ cm/s] | solubility ([3]; read-out: Mean Solubility) [µM] | solubility [3, 13] [µM] | solubility [3, 14] [µM] | solubility [3, 15] [µM] | solubility [3, 16] [µM] | solubility thermodynamic [3] [µM] | Solubility (class in words) [3] | half-life at 1 µM ([4]; read-out: t1/2) [min] | microsomal CLint at 1 µM [4] [µL/min/mg] | efflux ratio at 120 min, 10 μM ([1]; Caco-2) | Papp A→B at 120 min, 10 μM [1, 17] [×10⁻⁶ cm/s] | SMILES | MEC [2] [µM] | MTT (MEC) Minimum effective concentration [2] | functional activity in SIA (result in words) [6] | further results
1 | 2.31 | 81.1 | 50.7 | 2.31 | 3.4 | 1.22 | 24.8 (≈ 8.86 µg/mL) | 25 (≈ 8.93 µg/mL) | 16.6 (≈ 5.93 µg/mL) | 27.2 (≈ 9.72 µg/mL) | 30.3 (≈ 10.8 µg/mL) | 24.8 (≈ 8.86 µg/mL) | Sparingly | 1.64 | 845 |  |  | N#Cc1c(Cl)cc(O)c2c1C1C=CCC1C(c1ccc(Cl)cc1)N2 (stereo not shown) [Compound 14] | 3.93 | 3.93 µM | reduced invasion comparable to the parent compound 7 | collagen I invasion across cancer cell lines (result in words) [5]: inhibited collagen I invasion in both bFGF-sensitive and bFGF-insensitive cell lines
2 | 40.6 | 70.2 | 73.4 | 40.6 | 40 | 41.2 | > 100 | > 100 | > 100 | > 100 | > 100 | > 100 | Freely | 29.1 | 47.6 | 8.64 | 4.7 | CC(C)C[C@@H](CO)NCc1cc(O)c2cc(F)ccc2n1 [Compound 3.14] |  | No response |  | efflux ratio at 120 min, 10 μM ([1]; Caco-2, pH 7.4): 8.64; Papp A→B at 120 min, 10 μM [1, 18]: 4.7 ×10⁻⁶ cm/s; Papp A→B at 120 min, 10 μM [1, 19]: 4.69 ×10⁻⁶ cm/s; Papp A→B at 120 min, 10 μM [1, 20]: 4.71 ×10⁻⁶ cm/s; toxicity in the MTT assay (result in words) [2]: no toxicity; MTT (AC50) Conc at which 50% of maximum efficacy is reached [2]: No response; solubility (result in words) ([3]; Supplementary Table 2): freely soluble; half-life at 1 µM ([4]; read-out: t1/2 of clearance (CL1/2), in vitro): 29 min; EC50 [6]: 5.92 µM; EC50 ([6]; Homo sapiens, Daoy): 5.92 µM
3 | 2.91 | 86.6 | 85 | 2.91 | 2.62 | 3.2 | > 100 | > 100 | > 100 | > 100 | > 100 | > 100 | Freely | 83 | 16.7 | 1.5 | 1.94 | O=C(O)c1c(Cl)cc(O)c2c1C1C=CCC1C(c1ccc(Cl)cc1)N2 (stereo not shown) [Compound 13] |  | No response | mild but dose-depended reduction | efflux ratio at 120 min, 10 μM ([1]; Caco-2, pH 7.4): 1.5; Papp A→B at 120 min, 10 μM [1, 18]: 1.94 ×10⁻⁶ cm/s; Papp A→B at 120 min, 10 μM [1, 19]: 1.02 ×10⁻⁶ cm/s; Papp A→B at 120 min, 10 μM [1, 20]: 2.86 ×10⁻⁶ cm/s; MTT (AC50) Conc at which 50% of maximum efficacy is reached [2]: No response
4 | 7.05 | 32.1 | 33.3 | 7.05 | 7.14 | 6.96 | > 100 | > 100 |  | > 100 | > 100 | > 100 | Freely | 3.35 | 414 |  |  | O=[N+]([O-])c1c(Cl)cc(O)c2c1C1C=CCC1C(c1ccc(Cl)cc1Cl)N2 (stereo not shown) [Compound 8] | 6.79 | 6.79 µM | invasion inhibition only at the highest concentration | 
